According to US20200291444A1, “Macrocyclisation Tags” (Oxford University Innovation LTD, priority 2017, published 2020):
No end group written: not given here.

Columns and labels:
PCY1 [1] = test: PCY1 macrocyclisation of hybrid precursor peptides containing non-amino acids (Maldi); format: biochemical, Saponaria vaccaria; settings: 16 h incubation with PCY1, Maldi spectrum
Procedure: All kinetic measurements (activity tests, progress curves and initial-rate experiments) were performed as discontinuous assays analyzing samples via LC/MS or MALDI (10-mer activity test). Reactions were performed in 20 mM Tris pH 8.5, 100 mM NaCl, 5 mM DTT (for progress curves 0.2 mg mL-1 BSA was included).17 Reactions were performed at 30° C. and at various time points 50 μL samples were quenched with 20 μL of 6% (v/v) TFA. Samples (50 μL) were loaded onto a ZORBAX SBC18, 5 μm, 9.4 mm×50 mm (Agilent) column connected to an Agilent LC-MS instrument (G6130B Single Quad, Agilent Technologies). Reactants were separated from products using a gradient from A (H2O with 0.1% formic acid) to 80% B (acetonitrile), at a rate of 1.5 mL/min for 8.75 min. For data analysis, ion count peaks and UV absorbance peaks were integrated using Agilent ChemStation software. For data analysis involving quantitative mass spec integration, calibration curves with macrocyclic peptide product were performed in triplicate in order to linearly correlate ion counts to cyclic product concentration. Data fitting and plotting was performed with Prism 6. […]

[2] = system: T1, 13mer truncated substrate
T1 sequence: IWGIGCNPWTAEH

[3] = system: T2, 14mer truncated substrate
T2 sequence: IWGIGCNPWTAEHV

25mer substrate = system: T3, 25mer substrate
T3 sequence: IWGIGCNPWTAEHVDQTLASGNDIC

PCY1 [4] = test: LC/MS time course of macrocyclisation by PCY1; format: biochemical, Saponaria vaccaria; settings: 200 μM substrate, 3.6 μM PCY1
Procedure: (§1) All kinetic measurements (activity tests, progress curves and initial-rate experiments) were performed as discontinuous assays analyzing samples via LC/MS or MALDI (10-mer activity test). Reactions were performed in 20 mM Tris pH 8.5, 100 mM NaCl, 5 mM DTT (for progress curves 0.2 mg mL-1 BSA was included).17 Reactions were performed at 30° C. and at various time points 50 μL samples were quenched with 20 μL of 6% (v/v) TFA. Samples (50 μL) were loaded onto a ZORBAX SBC18, 5 μm, 9.4 mm×50 mm (Agilent) column connected to an Agilent LC-MS instrument (G6130B Single Quad, Agilent Technologies). Reactants were separated from products using a gradient from A (H2O with 0.1% formic acid) to 80% B (acetonitrile), at a rate of 1.5 mL/min for 8.75 min. For data analysis, ion count peaks and UV absorbance peaks were integrated using Agilent ChemStation software. For data analysis involving quantitative mass spec integration, calibration curves with macrocyclic peptide product were performed in triplicate in order to linearly correlate ion counts to cyclic product concentration. Data fitting and plotting was performed with Prism 6.
PCY1 extracted from S. vaccaria seeds has been previously described to have a turnover number of ˜1 h^−1 for PresegA1.^17 The enzyme produced heterologously in E. coli was evaluated by LC/MS-based time course experiments macrocyclizing 200 μM of PresegA1, PresegB1 or PresegF1 with 3.6 μM PCY1. […] We chose to investigate the slowest and fastest substrate by steady-state kinetics using an LC/MS assay and UV280 nm quantification. […] Under the ITC conditions, the measured kcat (0.14±0.01 s^−1) was a factor of three lower than the LC/MS derived values. […] Therefore, we resorted to an LC/MS assay followed by quantification using mass ion counts, relying on a calibration curve employing the macrocyclic peptide product as a standard (FIG. 2b).

PCY1:S562A = test: ITC equilibrium binding to PCY1:S562A; set-up: species or system Saponaria vaccaria; settings: ITC, 25° C.
Procedure: (§2) All PCY1 samples were buffer-exchanged or solubilized into buffer F and further diluted in the same batch of buffer F, in order to minimize buffer mismatches. ITC binding experiments were performed using a cell solution containing PCY1:S562A and a titrant solution with each peptide used. […] The measurements were performed at a stir speed of 750 rpm at 25° C. using a reference power of 10 μcal/s, except for A1-NH2 (5 μcal/s). A buffer titration control in which peptide was titrated into buffer was performed for each experiment. Data processing, fitting to a non-linear one-site binding model, and data plotting was performed using MicroCal PEAQ ITC analysis software (Malvern). […] The measurement was performed in buffer at 30° C., at 750 rpm using a reference power of 5 μcal/s.

PCY1 [5] = settings: PCY1 extracted from S. vaccaria seeds; cited from earlier work
PCY1 [6] = test: LC/MS steady-state kinetics of macrocyclisation by PCY1; format: biochemical, Saponaria vaccaria
Procedure: as §1
PCY1 extracted from S. vaccaria seeds has been previously described to have a turnover number of ˜1 h^−1 for PresegA1.^17 The enzyme produced heterologously in E. coli was evaluated by LC/MS-based time course experiments macrocyclizing 200 μM of PresegA1, PresegB1 or PresegF1 with 3.6 μM PCY1. These substrates were chosen as they produce 6, 5 and 9 residue macrocycles, respectively, show variability in the length of the C-terminal tail sequence, and have a different C-terminal core residue (proline in PresegF1, alanine in the other two) (FIG. 1b). PresegB1 was completely macrocyclized in ˜30 min, PresegA1 in ˜50 min and PresegF1 in >3 h (FIG. 2a). We chose to investigate the slowest and fastest substrate by steady-state kinetics using an LC/MS assay and UV280 nm quantification. […] Under the ITC conditions, the measured kcat (0.14±0.01 s^−1) was a factor of three lower than the LC/MS derived values. […] Therefore, we resorted to an LC/MS assay followed by quantification using mass ion counts, relying on a calibration curve employing the macrocyclic peptide product as a standard (FIG. 2b).

PCY1 [7] = test: Single injection kinetic ITC with PCY1; format: biochemical, Saponaria vaccaria; settings: 30° C.
Procedure: as §2, with “used. All peptides were used at 200 μM except for presegetalin A1-NH2 (700 μM).” for “used.”

GmPOPB_S577A [8] = target: T4, GmPOPB_S577A (Galerina marginata, UniProt H2E7Q8, S577A); test: ITC binding to inactive mutant GmPOPB_S577A
T4 construct: His-tag (TEV-cleavable) (cleaved yes); made in house; host or cells: E. coli BL21(DE3)
T4 sequence (H2E7Q8 1-730 S577A): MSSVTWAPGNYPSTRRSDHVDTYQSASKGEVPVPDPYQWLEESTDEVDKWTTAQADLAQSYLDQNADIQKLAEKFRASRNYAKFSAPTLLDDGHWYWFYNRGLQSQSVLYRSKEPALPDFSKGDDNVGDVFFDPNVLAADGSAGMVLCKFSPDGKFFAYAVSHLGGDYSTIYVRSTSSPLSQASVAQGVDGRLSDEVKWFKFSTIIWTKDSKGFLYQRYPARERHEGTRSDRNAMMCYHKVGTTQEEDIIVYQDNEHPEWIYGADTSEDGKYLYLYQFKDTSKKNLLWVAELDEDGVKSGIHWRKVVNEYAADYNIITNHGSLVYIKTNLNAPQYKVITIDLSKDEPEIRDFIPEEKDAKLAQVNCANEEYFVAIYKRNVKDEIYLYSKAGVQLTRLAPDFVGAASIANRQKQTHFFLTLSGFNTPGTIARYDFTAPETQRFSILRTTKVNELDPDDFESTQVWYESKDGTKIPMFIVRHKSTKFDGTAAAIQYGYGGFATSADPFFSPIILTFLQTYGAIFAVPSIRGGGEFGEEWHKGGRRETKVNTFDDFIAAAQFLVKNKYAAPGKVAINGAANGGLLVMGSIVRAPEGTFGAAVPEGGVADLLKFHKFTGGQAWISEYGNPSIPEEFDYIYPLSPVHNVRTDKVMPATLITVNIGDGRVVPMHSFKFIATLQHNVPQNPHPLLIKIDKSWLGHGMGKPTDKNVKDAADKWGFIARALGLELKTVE

GmPOPB_S577A [9] = target: T4, GmPOPB_S577A; settings: previously shown; cited from earlier work
[10] = target: T5, GmPOPB_S577A (Galerina marginata), H2E7Q8; test: ITC, peptide titrated into GmPOPB_S577A, 20 C
T5 chain: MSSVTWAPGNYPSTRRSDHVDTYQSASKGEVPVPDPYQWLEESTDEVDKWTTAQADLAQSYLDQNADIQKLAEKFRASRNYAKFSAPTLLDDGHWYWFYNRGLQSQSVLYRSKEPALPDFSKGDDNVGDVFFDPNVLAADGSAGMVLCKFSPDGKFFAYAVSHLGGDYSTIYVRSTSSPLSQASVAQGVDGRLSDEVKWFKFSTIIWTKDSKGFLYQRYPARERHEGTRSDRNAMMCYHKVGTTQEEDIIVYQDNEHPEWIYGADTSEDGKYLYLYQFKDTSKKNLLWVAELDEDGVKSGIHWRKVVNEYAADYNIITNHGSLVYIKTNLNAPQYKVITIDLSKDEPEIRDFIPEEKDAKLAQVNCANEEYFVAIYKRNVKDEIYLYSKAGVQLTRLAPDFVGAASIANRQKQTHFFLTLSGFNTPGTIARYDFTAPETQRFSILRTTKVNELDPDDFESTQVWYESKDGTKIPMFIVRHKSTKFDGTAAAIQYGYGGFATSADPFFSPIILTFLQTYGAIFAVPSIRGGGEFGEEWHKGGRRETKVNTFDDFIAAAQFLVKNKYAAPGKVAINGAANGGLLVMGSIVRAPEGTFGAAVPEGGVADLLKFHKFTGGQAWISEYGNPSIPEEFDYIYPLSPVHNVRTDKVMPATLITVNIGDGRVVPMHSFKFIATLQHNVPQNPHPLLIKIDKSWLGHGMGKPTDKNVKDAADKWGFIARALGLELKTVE

PresegB1 = test: Activity test of PCY1 variants with PresegB1 as substrate; format: biochemical, Saponaria vaccaria

For FSA-8Aoc-SKPIQT-NH2, which conversion rate overnight (PCY1 [1]) is on record?
Its conversion rate overnight is “around 50%”.

For “GmPOPB (Galerina marginata POPB), wild type”, which “Km, Michaelis-Menten kinetics of macrocyclisation” value (shortened to “Km, Michaelis-Menten kinetics”) [2] is on record?
The value was “the 13mer substrate has a Km (25 µM)”.

And the “Km, Michaelis-Menten kinetics” value [3]?
The value was “the 14mer possesses higher Km (380 µM)”.

And the “Km, Michaelis-Menten kinetics” value (25mer substrate)?
The value was “the 25mer substrate (50 µM)”.

Which “time until completely macrocyclized” value (PCY1 [4]) does the source give for “PresegA1: native linear PCY1 substrate presegetalin A1; produces a 6 residue macrocycle (GVPVWAFQAKDVENASAPV; PresegA1)” here?
Its value is ~50 min.

What about the Kd (PCY1:S562A) of the same molecule?
The Kd was ~200 nM.

What about the turnover number (PCY1 [5]) of the same molecule?
Its turnover number is ~1 h⁻¹.

What does the source list for “PresegB1: native linear PCY1 substrate presegetalin B1; produces a 5 residue macrocycle (GVAWAFQAKDVENASAPV)”?
time until completely macrocyclized (PCY1 [4]): ~30 min; kcat (table head prints kout) (PCY1 [6]; LC/MS (UV280 nm), 30° C.): 0.37 ± 0.02 s⁻¹; Km (PCY1 [6]; LC/MS (UV280 nm), 30° C., read-out: Km (table head prints Kin)): 0.45 ± 0.17 µM; processing by PCY1 (in words) (PCY1 [6]; steady state kinetics, FIG. 7): rapidly processed; kcat (table head prints kout) (PCY1 [7]): 0.14 ± 0.01 s⁻¹; Km (PCY1 [7]; read-out: Km (table head prints Kin)): 0.25 ± 0.01 µM; Kd (PCY1:S562A): ~200 nM

For VGAG-8Aoc-FPIQT-NH2, which “conversion overnight (in words)” value (PCY1 [1]) is on record?
The value was “almost entirely converted”.

Which results are given for “WTAEHVDQTLASGNDIC [17mer-recogSeq, reference compound]”?
Kd (GmPOPB_S577A [8]): 430 ± 10 nM; difference in ΔG between the 17mer recognition sequence and the 25mer peptide (GmPOPB_S577A [9]): 1.34 kcal/mol

B1: 35mer substrate (GmAMA1) (peptide)
peptide: MFDTNATRLPIWGIGCNPWTAEHVDQTLASGNDIC
modifications: not checked
Which Kd [10] does the source give for B1 here?
The Kd was 120 nM.

B2: S562A: PCY1 variant (protein)
chain: MATSGFSKPLHYPPVRRDETVVDDYFGVKVADPYRWLEDPNSEETKEFVDNQEKLANSVLEECELIDKFKQKIIDFVNFPRCGVPFRRANKYFHFYNSGLQAQNVFQMQDDLDGKPEVLYDPNLREGGRSGLSLYSVSEDAKYFAFGIHSGLTEWVTIKILKTEDRSYLPDTLEWVKFSPAIWTHDNKGFFYCPYPPLKEGEDHMTRSAVNQEARYHFLGTDQSEDILLWRDLENPAHHLKCQITDDGKYFLLYILDGCDDANKVYCLDLTKLPNGLESFRGREDSAPFMKLIDSFDASYTAIANDGSVFTFQTNKDAPRKKLVRVDLNNPSVWTDLVPESKKDLLESAHAVNENQLILRYLSDVKHVLEIRDLESGALQHRLPIDIGSVDGITARRRDSVVFFKFTSILTPGIVYQCDLKNDPTQLKIFRESVVPDFDRSEFEVKQVFVPSKDGTKIPIFIAARKGISLDGSHPCEMHGYGGFGINMMPTFSASRIVFLKHLGGVFCLANIRGGGEYGEEWHKAGFRDKKQNVFDDFISAAEYLISSGYTKARRVAIEGGANGGLLVAACINQRPDLFGCAEANCGVMDMLRFHKFTLGYLWTGDYGCSDKEEEFKWLIKYSPIHNVRRPWEQPGNEETQYPATMILTADHDDRVVPLHSFKLLATMQHVLCTSLEDSPQKNPIIARIQRKAAHYGRATMTQIAEVADRYGFMAKALEAPWID
Which “relative activity of PCY1 variant (in words)” value (PresegB1) does the source give for B2 here?
Its value is “inactive”.
